Measured values published in US10420734B2, “Method of treating cancer using selective estrogen receptor modulators” (Duke University, priority 2014, dated 2019).
Read-outs that look alike come from different tables or passages of the source.

Assays:
ESR1 = molecular target: T1, ESR1 (Homo sapiens, UniProt P03372); assay: ESR1 expression in LTED MCF7 cells (immunoblot); format: cell-based; conditions: 24 hours, SERDs 10^-6 M
T1 sequence (P03372 1-595): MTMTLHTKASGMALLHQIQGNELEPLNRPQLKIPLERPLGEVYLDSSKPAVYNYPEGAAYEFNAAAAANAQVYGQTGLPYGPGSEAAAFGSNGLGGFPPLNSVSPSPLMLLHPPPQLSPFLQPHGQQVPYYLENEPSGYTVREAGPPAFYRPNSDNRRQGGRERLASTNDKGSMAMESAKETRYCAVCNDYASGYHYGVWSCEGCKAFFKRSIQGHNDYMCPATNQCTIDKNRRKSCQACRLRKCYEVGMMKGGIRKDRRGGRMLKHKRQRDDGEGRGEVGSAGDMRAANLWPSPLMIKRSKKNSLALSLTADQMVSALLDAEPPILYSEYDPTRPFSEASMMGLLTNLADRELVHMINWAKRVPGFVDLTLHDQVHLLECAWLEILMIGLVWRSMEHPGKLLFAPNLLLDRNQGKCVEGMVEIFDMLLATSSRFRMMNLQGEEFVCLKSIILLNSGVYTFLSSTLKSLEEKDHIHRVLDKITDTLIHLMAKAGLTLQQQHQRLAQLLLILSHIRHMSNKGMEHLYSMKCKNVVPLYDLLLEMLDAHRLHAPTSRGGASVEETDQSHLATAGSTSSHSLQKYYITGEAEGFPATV
Description: MCF7 and SKBR3 cell lines were maintained in DMEM/F12 or RPMI media (Invitrogen), respectively, supplemented with 8% fetal bovine serum (FBS, Gemini), non-essential amino acids (Invitrogen), and sodium pyruvate (Invitrogen). Unless otherwise indicated, cells were plated for experiments in media lacking phenol red and supplemented with 8% charcoal stripped FBS (CFS, Gemini). LTED MCF7 cells were maintained and plated for experiments in phenol red free DMEM/F12 media supplemented with 8% CFS that had been charcoal stripped twice. 48 hours after plating, cells were treated with ESR1 ligands as indicated, and were harvested for immunoblot or real time quantitative PCR analysis 24 hours after treatment.
Expression of ESR1 and loading control cytokeratin 18 (CK18—FIG. 7A) in whole cell extracts were detected by immunoblot (top). ESR1 levels relative to CK18 were quantitated by densitometry using Adobe Photoshop (bottom). […] ESR1 expression was detected as in FIG. 6A. For FIGS. 6C-6D, LTED MCF7 cells were plated in phenol red free media supplemented with FBS that was stripped of growth factors twice using charcoal. For FIG. 6C, after 48 hours, cells were treated for 24 hours with E2 (10^−7 M) or SERDs (10^−6 M) and ESR1 was analyzed as in FIG. 6A.

[1] = molecular target: T2, human estrogen receptor beta (ESR2) (Homo sapiens, UniProt Q92731); assay: ERE-luciferase reporter assay in transiently transfected SKBR3 cells (ESR2); format: cell-based; conditions: ESR2 isoform, E2 10 nM, RAD1901 10^-10-10^-6 M, 24 hours
T2 construct: expressed in transfected cells; host or cells: SKBR3
Description: The ability of RAD1901 (FIG. 5A) to modulate the […] estradiol (E2) dependent transcriptional activity of the human estrogen receptor alpha (ESR1) and human estrogen receptor beta (ESR2) was assessed in transiently transfected SKBR3 cells using a synthetic reporter gene. […] For FIG. 5B, SKBR3 cells were plated in phenol red free media supplemented with charcoal stripped FBS (CFS) 24 hours prior to transfection with an ERE-luciferase reporter together with ESR1 or ESR2 expression vectors. 24 hours after transfection, cells were treated with E2 (10 nM) together with RAD1901 (10^−10-10^−6 M) for 24 hours prior to harvest and analysis of luciferase activity normalized to co-transfected β-galactosidase control. […] For FIG. 5D, MCF7 cells were plated in phenol red free media supplemented with CFS 24 hours prior to treatment, and were treated with 10^−9 M E2 as well as with the indicated ligands (10^−11-10^−6 M) on days 1, 4, and 6 of an 8 day proliferation assay. DNA content as assessed by fluorescence was measured as a surrogate for cell proliferation. The relative increase in DNA fluorescence was calculated by normalizing to baseline values detected in a duplicate plate of cells that was harvested on day 1 prior to the initial treatment. […] For FIG. 5F, expression of ESR1 target genes in tumors was analyzed essentially as in (C).

MCF7 cells = assay: MCF7 proliferation in response to E2 or insulin; format: cell-based; conditions: SERMs and SERDs 10^-6 M, insulin 2×10^-9 M
Description: The expression of ESR1 target genes responsive to (FIG. 10A) agonists, (FIG. 10B) primarily SERMs, or (FIG. 10C) SERMs and agonists was analyzed as in FIG. 5. Relative changes of these and additional target genes designed to evaluate dose dependent response to RAD1901 are presented in FIG. 11. Significant target gene regulation (*p<0.05) as compared to the vehicle control was detected by 2 way ANOVA followed by Fisher's LSD (Graphpad Prism 6). […] Triplicate wells of SKBR3 cells were transfected with plasmids expressing ESR1 fused to VP16 together with Gal4DBD alone (control) or Gal4DBD fused to ESR1 interacting peptides noted on the horizontal axis. Cells were then treated with the indicated ESR1 ligands (10^−7 M unless otherwise indicated). Interaction of ESR1 with the Gal4DBD peptide constructs was detected through activation of a Gal4-responsive luciferase reporter construct and was normalized to detected β-galactosidase activity expressed in a constitutive manner using a second vector. Normalized response was expressed as fold increase over the detected level of interaction between Gal4DBD alone and ESR1-VP16 in the absence of ligand (Veh). For FIG. 10E, the effect of SERMs and SERDs (10^−6 M) on the proliferation of MCF7 cells in response to E2 (10^−9 M) or insulin (2×10^−9 M) was evaluated as in FIG. 5. Statistically similar treatments (2-way ANOVA followed by Bonferroni comparison) are indicated by letters. […] The expression of ESR1 target genes responsive to (A) agonists, (B) primarily SERMs, or (C) SERMs and agonists was analyzed using RT qPCR following RNA isolation. mRNA expression was normalized (ΔΔCT analysis) to the similarly detected 36B4 housekeeping. The profiles presented in dendogram format were analyzed with the Ward hierarchical clustering algorithm (JMP 11) using standardized data.

[2] = cited from earlier work

T2 sequence (Q92731 whole entry, canonical isoform): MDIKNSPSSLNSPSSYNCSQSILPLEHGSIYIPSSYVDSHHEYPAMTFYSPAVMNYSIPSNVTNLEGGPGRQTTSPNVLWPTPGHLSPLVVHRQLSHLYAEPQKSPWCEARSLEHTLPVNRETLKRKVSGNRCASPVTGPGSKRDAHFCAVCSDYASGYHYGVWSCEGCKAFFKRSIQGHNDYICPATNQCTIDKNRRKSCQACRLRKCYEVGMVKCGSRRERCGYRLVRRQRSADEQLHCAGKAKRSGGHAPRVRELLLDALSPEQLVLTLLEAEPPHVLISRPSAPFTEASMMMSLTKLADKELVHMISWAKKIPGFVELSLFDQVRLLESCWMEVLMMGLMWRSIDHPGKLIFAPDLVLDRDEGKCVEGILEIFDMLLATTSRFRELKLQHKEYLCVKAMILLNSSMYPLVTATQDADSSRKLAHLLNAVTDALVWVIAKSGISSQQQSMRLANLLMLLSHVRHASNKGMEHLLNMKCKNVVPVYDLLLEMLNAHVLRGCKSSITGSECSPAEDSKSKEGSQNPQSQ

- ESR1 expression levels (ESR1): downregulated ESR1 expression
- inhibition of E2-dependent activation of an ERE-luciferase reporter [1]: effectively inhibited
SMILES: CCNCCc1ccc(CN(CC)c2cc(OC)ccc2[C@@H]2CCc3cc(O)ccc3C2)cc1 [RAD1901, (R)-6-{2-{ethyl[4-(2-ethylaminoethyl)benzyl]amino}-4-methoxyphenyl}-5,6,7,8-tetrahydronaphthalen-2-ol]
- insulin-stimulated proliferation (MCF7 cells): without effect
- induction of hot flashes ([2]; healthy postmenopausal women): induces hot flashes in healthy postmenopausal women in a dose dependent manner
- hot flashes in clinical trials ([2]; higher doses tested): ineffective
- hot flashes in clinical trials ([2]; lowest dose tested): effectively suppress hot flashes
- brain penetrance ([2]; postmenopausal women): significant brain penetrance
